Experimental data taken from patent publication US12331033B2, “Inhibitors of SARM1” (Disarm Therapeutics, Inc., priority 2020, dated 2025).
pIC50: −log10 of the molar value.

Target: SARM1 (ARM-SAM-TIR) (Homo sapiens (Human), UniProt Q6SZW1)
Assay: ARM-SAM-TIR SARM1 IC50 assay (NADase activity, NAD+ cleavage, RapidFire MS)
Assay type: biochemical
Details: ARM-SAM-TIR lysate 5 μg/mL, 2 h pre-incubation, 5 μM NAD+, 2 hr room temperature
Method: This Example describes an assay of ARM-SAM-TIR NADase activity and use of this assay to measure the efficacy of compounds of Formula I or Formula I′ to block SARM1 mediated NAD+ cleavage. This assay was optimized in such a way as to characterize the efficacy of the compounds in Formula I or Formula I′ to inhibit SARM1 activity and to calculate an IC50 value for each compound. This assay makes use of full length SARM1, which encompasses the ARM, SAM and TIR domains.
NRK1-HEK293T cells were seeded onto 150 cm^2 plates at 20×10^6 cells per plate. The next day, the cells were transfected with 15 μg ARM-SAM-TIR expression plasmid, SEQ ID NO: 1.
The cultures were supplemented with 1 mM NR at time of transfection to minimize toxicity from ARM-SAM-TIR overexpression. Forty-eight hours after transfection, cells were harvested, pelleted by centrifugation at 1,000 rpm (Sorvall ST 16R centrifuge, Thermo Fisher), and washed once with cold PBS (0.01 M phosphate buffered saline NaCl 0.138 M; KCl 0.0027 M; pH 7.4). The cells were resuspended in PBS with protease inhibitors (cOmplete™ protease inhibitor cocktail, Roche product #11873580001) and cell lysates were prepared by sonication (Branson Sonifer 450, output=3, 20 episodes of stroke). The lysates were centrifuged (12,000×g for 10 min at 4° C.) to remove cell debris and the supernatants (containing ARM-SAM-TIR protein) were stored at −80° C. for later use in the in vitro ARM-SAM-TIR NADase assay (see below). Protein concentration was determined by the Bicinchoninic (BCA) method and used to normalize lysate concentrations.
The enzymatic assay was performed in a 384-well polypropylene plate in Dulbecco's PBS buffer in a final assay volume of 20 μL. ARM-SAM-TIR lysate with a final concentration of 5 μg/mL was pre-incubated with the respective compound at 1% DMSO final assay concentration over 2 h at room temperature. The reaction was initiated by addition of 5 μM final assay concentration of NAD+ as substrate. After a 2 hr room temperature incubation, the reaction was terminated with 40 μL of stop solution of 7.5% trichloroactetic acid in acetonitrile. The NAD+ and ADPR concentrations were analyzed by a RapidFire High Throughput Mass Spectrometry System (Agilent Technologies, Santa Clara, Calif.) using an API4000 triple quadrupole mass spectrometer (AB Sciex Framingham, Mass.).

SARM1 (ARM-SAM-TIR), sequence (Q6SZW1 other isoform, or with tags, fused parts or gaps): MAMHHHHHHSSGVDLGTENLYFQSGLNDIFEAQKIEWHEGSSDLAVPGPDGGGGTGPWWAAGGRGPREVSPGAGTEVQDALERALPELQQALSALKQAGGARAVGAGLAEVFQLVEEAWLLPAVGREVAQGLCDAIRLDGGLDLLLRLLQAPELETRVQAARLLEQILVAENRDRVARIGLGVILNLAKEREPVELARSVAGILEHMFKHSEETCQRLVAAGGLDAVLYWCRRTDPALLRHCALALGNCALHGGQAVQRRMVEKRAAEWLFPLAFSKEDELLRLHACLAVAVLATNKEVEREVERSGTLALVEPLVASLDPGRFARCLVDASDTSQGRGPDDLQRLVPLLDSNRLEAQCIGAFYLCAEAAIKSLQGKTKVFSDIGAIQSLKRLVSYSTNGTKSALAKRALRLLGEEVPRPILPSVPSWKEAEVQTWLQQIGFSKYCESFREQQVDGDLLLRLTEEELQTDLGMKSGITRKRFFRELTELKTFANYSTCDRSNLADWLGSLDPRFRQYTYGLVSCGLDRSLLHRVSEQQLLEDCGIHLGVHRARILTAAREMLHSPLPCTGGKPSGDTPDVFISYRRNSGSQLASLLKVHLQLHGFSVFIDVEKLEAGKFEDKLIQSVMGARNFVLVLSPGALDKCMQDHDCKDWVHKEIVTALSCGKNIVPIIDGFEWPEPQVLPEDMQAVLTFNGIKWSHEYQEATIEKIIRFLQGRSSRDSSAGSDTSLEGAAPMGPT

CC(C)(C)c1ccc(CCC(=O)Nc2nnc(-c3ccncc3)[nH]2)cc1 [Example 78]
pIC50: 4.82 to 5.30

N#Cc1ccc(CC(=O)Nc2nnc(-c3ccncc3)[nH]2)cc1 [Example 79]
pIC50: 4.82 to 5.30

O=C(CN1C(=O)COc2ccccc21)Nc1nnc(-c2ccncc2)[nH]1 [Example 80]
pIC50: 4.52 to 4.82

O=C(CCc1ccc(Cl)s1)Nc1nnc(-c2ccncc2)[nH]1 [Example 81]
pIC50: > 5.30

N[C@H](Cc1ccc(Cl)cc1)C(=O)Nc1nnc(-c2ccncc2)[nH]1 [Example 82]
pIC50: > 5.30

Cc1ccc(CCC(=O)Nc2nnc(-c3ccncc3)[nH]2)cn1 [Example 83]
pIC50: 4.82 to 5.30

O=C(CCc1ccc(Cl)nc1)Nc1nnc(-c2ccncc2)[nH]1 [Example 84]
pIC50: > 5.30

O=C(CCc1ccc(C(F)(F)F)cn1)Nc1nnc(-c2ccncc2)[nH]1 [Example 85]
pIC50: 4.82 to 5.30

O=C(CCc1ccc(C(F)(F)F)nc1)Nc1nnc(-c2ccncc2)[nH]1 [Example 86]
pIC50: > 5.30

O=C(CCc1cnc(C(F)(F)F)nc1)Nc1nnc(-c2ccncc2)[nH]1 [Example 87]
pIC50: > 5.30

O=C(Nc1nnc(-c2ccncc2)[nH]1)[C@H]1CCc2ccccc2C1 [Example 88]
pIC50: > 5.30

O=C(Nc1nnc(-c2ccncc2)[nH]1)[C@@H]1CCc2ccccc2C1 [Example 89]
pIC50: 4.82 to 5.30

O=C(C[C@H]1CCCc2ccccc21)Nc1nnc(-c2ccncc2)[nH]1 [Example 90]
pIC50: > 5.30

O=C(C[C@@H]1CCCc2ccccc21)Nc1nnc(-c2ccncc2)[nH]1 [Example 91]
pIC50: > 5.30

O=C(NCc1ccc(Cl)cc1)Nc1nnc(-c2ccncc2)[nH]1 [Example 92]
pIC50: > 5.30

C[C@@H](CC(=O)Nc1nnc(-c2ccncc2)[nH]1)c1ccccc1 [Example 93]
pIC50: 4.52 to 4.82

C[C@H](CC(=O)Nc1nnc(-c2ccncc2)[nH]1)c1ccccc1 [Example 94]
pIC50: 4.52 to 4.82

CC(Cc1ccccc1)C(=O)Nc1nnc(-c2ccncc2)[nH]1 (stereo not shown) [Example 95]
pIC50: 4.82 to 5.30

CC(C)(Cc1ccccc1)C(=O)Nc1nnc(-c2ccncc2)[nH]1 [Example 96]
pIC50: 4.82 to 5.30

O=C(CCc1ccc(C(F)F)cc1)Nc1nnc(-c2ccncc2)[nH]1 [Example 97]
pIC50: > 5.30

CN(C(=O)CCc1ccccc1)c1nnc(-c2ccncc2)[nH]1 [Example 98]
pIC50: 4.82 to 5.30

O=C(CCc1ccc(Cl)cc1)Nc1ncc(-c2ccncc2)s1 [Example 99]
pIC50: 4.82 to 5.30

O=C(CCc1ccc(Cl)cc1)Nc1nnc(-c2ccncc2)o1 [Example 100]
pIC50: < 4.52

O=C(CCc1ccc(Cl)c(Cl)c1)Nc1nnc(-c2ccncc2)[nH]1 [Example 101]
pIC50: > 5.30

O=C(COc1ccc(Cl)cc1)Nc1nnc(-c2ccncc2)[nH]1 [Example 102]
pIC50: 4.82 to 5.30

O=C(Nc1nnc(-c2ccncc2)[nH]1)[C@@H]1C[C@@H]1c1ccccc1 [Example 103]
pIC50: 4.52 to 4.82

O=C(Nc1nnc(-c2ccncc2)[nH]1)[C@@H]1C[C@H]1c1ccccc1 [Example 104]
pIC50: 4.82 to 5.30

O=C(CCc1ccc(Br)cc1)Nc1nnc(-c2ccncc2)[nH]1 [Example 105]
pIC50: > 5.30

O=C(CCc1ccc(Cl)cn1)Nc1nnc(-c2ccncc2)[nH]1 [Example 106]
pIC50: > 5.30

COc1ccccc1CCC(=O)Nc1nnc(-c2ccncc2)[nH]1 [Example 107]
pIC50: > 5.30

COc1cccc(CCC(=O)Nc2nnc(-c3ccncc3)[nH]2)c1 [Example 108]
pIC50: 4.82 to 5.30

O=C(CC1CCOc2ccccc21)Nc1nnc(-c2ccncc2)[nH]1 (stereo not shown) [Example 109]
pIC50: > 5.30

Cn1nc(-c2ccncc2)nc1NC(=O)CCc1ccccc1 [Example 110]
pIC50: < 4.52

Cn1nc(NC(=O)CCc2ccccc2)nc1-c1ccncc1 [Example 111]
pIC50: < 4.52

O=C(CCc1ccncc1)Nc1nnc(-c2ccncc2)[nH]1 [Example 112]
pIC50: 4.52 to 4.82

O=C(CCc1ccc(F)cc1Cl)Nc1nnc(-c2ccncc2)[nH]1 [Example 113]
pIC50: > 5.30

O=C(CCc1ccc(Cl)cc1)Nc1cc(-c2ccncc2)[nH]n1 [Example 114]
pIC50: > 5.30

O=C(CCc1ccc(Cl)cc1)Nc1nnc(-c2ccncc2)s1 [Example 115]
pIC50: < 4.52

O=C(Nc1nnc(-c2ccncc2)[nH]1)C1Cc2ccccc2C1 [Example 116]
pIC50: 4.82 to 5.30

O=C(CC1CCc2ccccc21)Nc1nnc(-c2ccncc2)[nH]1 (stereo not shown) [Example 117]
pIC50: > 5.30

O=C(CCc1c(F)c(F)c(F)c(F)c1F)Nc1nnc(-c2ccncc2)[nH]1 [Example 118]
pIC50: > 5.30

N#Cc1ccc(CCC(=O)Nc2nnc(-c3ccncc3)[nH]2)cc1 [Example 119]
pIC50: > 5.30

O=C(CCc1ccc(OC(F)(F)F)cc1)Nc1nnc(-c2ccncc2)[nH]1 [Example 120]
pIC50: > 5.30

CC(C)(CC(=O)Nc1nnc(-c2ccncc2)[nH]1)c1ccccc1 [Example 121]
pIC50: 4.52 to 4.82

Cn1c(CCC(=O)Nc2nnc(-c3ccncc3)[nH]2)nc2ccccc21 [Example 122]
pIC50: 4.52 to 4.82

O=C(CCc1cn2ccccc2n1)Nc1nnc(-c2ccncc2)[nH]1 [Example 123]
pIC50: 4.52 to 4.82

O=C(CCc1ccc(C(F)(F)F)cc1)Nc1nnc(-c2ccncc2)[nH]1 [Example 124]
pIC50: > 5.30

O=C(CCc1ccc(F)cc1)Nc1nnc(-c2ccncc2)[nH]1 [Example 125]
pIC50: > 5.30

CS(=O)(=O)c1ccc(CCC(=O)Nc2nnc(-c3ccncc3)[nH]2)cc1 [Example 126]
pIC50: 4.52 to 4.82

COc1ccc(CCC(=O)Nc2nnc(-c3ccncc3)[nH]2)cc1 [Example 127]
pIC50: > 5.30

Cn1ccnc1CCC(=O)Nc1nnc(-c2ccncc2)[nH]1 [Example 128]
pIC50: < 4.52

Cc1ccc(CCC(=O)Nc2nnc(-c3ccncc3)[nH]2)c(C)c1 [Example 129]
pIC50: > 5.30

O=C(CCc1ccc2ccccc2c1)Nc1nnc(-c2ccncc2)[nH]1 [Example 130]
pIC50: < 4.52

O=C(Nc1nnc(-c2ccncc2)[nH]1)C1CCc2ccccc2C1 (stereo not shown) [Example 131]
pIC50: > 5.30

O=C(CC1CCCc2ccccc21)Nc1nnc(-c2ccncc2)[nH]1 (stereo not shown) [Example 132]
pIC50: > 5.30

Cn1cc(CCC(=O)Nc2nnc(-c3ccncc3)[nH]2)cn1 [Example 133]
pIC50: < 4.52

O=C(CCC1CCCCC1)Nc1nnc(-c2ccncc2)[nH]1 [Example 134]
pIC50: 4.82 to 5.30

O=C(Nc1nc(-c2ccncc2)n[nH]1)c1ccccc1 [Example 135]
pIC50: 4.82 to 5.30

O=C(CCc1ccc(Cl)cc1)Nc1nnc(-c2ccncc2)[nH]1 [Example 136]
pIC50: > 5.30

O=C(CCc1cccc(Cl)c1)Nc1nnc(-c2ccncc2)[nH]1 [Example 137]
pIC50: > 5.30

O=C(CCc1ccccc1Cl)Nc1nnc(-c2ccncc2)[nH]1 [Example 138]
pIC50: > 5.30

Cc1ccc(CCC(=O)Nc2nnc(-c3ccncc3)[nH]2)cc1 [Example 139]
pIC50: > 5.30

Cc1cccc(CCC(=O)Nc2nnc(-c3ccncc3)[nH]2)c1 [Example 140]
pIC50: > 5.30

Cc1ccccc1CCC(=O)Nc1nnc(-c2ccncc2)[nH]1 [Example 141]
pIC50: > 5.30

O=C(CCCc1ccccc1)Nc1nnc(-c2ccncc2)[nH]1 [Example 142]
pIC50: 4.82 to 5.30

O=C(Cc1ccccc1)Nc1nnc(-c2ccncc2)[nH]1 [Example 143]
pIC50: 4.52 to 4.82

CC(=O)Nc1nnc(-c2ccncc2)[nH]1 [Example 144]
pIC50: < 4.52

O=C(COc1ccccc1)Nc1nnc(-c2ccncc2)[nH]1 [Example 145]
pIC50: < 4.52

O=C(CCc1ccccc1)Nc1nnc(-c2ccncc2)[nH]1 [Example 146]
pIC50: > 5.30

Nc1nnc(-c2ccncc2)[nH]1 [Example 147]
pIC50: < 4.52

Cc1ccc(OCC(=O)Nc2nnc(-c3ccncc3)[nH]2)c(C)c1 [Example 149]
pIC50: 4.52 to 4.82

[2H]C([2H])([2H])c1c(-c2ccncc2)n[nH]c1NC(=O)C([2H])([2H])C([2H])([2H])c1ccc(Cl)nc1 [Example 150]
pIC50: > 5.30

Cc1c(-c2ccncc2)n[nH]c1NC(=O)CCc1cnc(Cl)c(F)c1 [Example 151]
pIC50: > 5.30

Cc1c(-c2ccnnc2)n[nH]c1NC(=O)CCc1ccc(Cl)s1 [Example 152]
pIC50: > 5.30

Cc1c(-c2ccncc2)n[nH]c1NC(=O)CCc1ccc(F)nc1 [Example 153]
pIC50: > 5.30

Cc1c(-c2ccnnc2)n[nH]c1NC(=O)CCc1ccc(Cl)c(F)c1 [Example 154]
pIC50: > 5.30

Cc1c(-c2ccnnc2)n[nH]c1NC(=O)CCc1ccc(Cl)cc1 [Example 155]
pIC50: > 5.30

O=C(CCc1ccc(Cl)cc1)Nc1nnc(-c2ccncn2)[nH]1 [Example 156]
pIC50: > 5.30

O=C(CCc1ccc(Cl)cc1)Nc1nnc(-c2ccns2)[nH]1 [Example 157]
pIC50: > 5.30
